Test results from patent publication US10457681B2, “Toll-like receptor 7 (TLR7) agonists having a tricyclic moiety, conjugates thereof, and methods and uses therefor” (BRISTOL-MYERS SQUIBB COMPANY, priority 2017, dated 2019).

Tests used:
[1] = molecular target: human TLR7 (Homo sapiens (Human), UniProt Q9NYK1); assay: HEK-Blue TLR7 reporter assay (TLR7 agonist activity); type: cell-based; settings: HEK-Blue TLR7 cells, SEAP reporter, 18 h treatment; read-out: TLR7 Agonism (EC50)
Procedure: This example describes a method for assaying TLR7 agonist activity of the compounds disclosed in this specification.
HEK-Blue™ TLR7 cells were added to each well of a 384-well tissue-culture plate (15,000 cells per well) and incubated 16-18 h at 37° C., 5% CO2. Compounds (100 nl) were dispensed into wells containing the HEK-Blue™ TLR cells and the treated cells were incubated at 37° C., 5% CO2. After 18 h treatment ten microliters of freshly-prepared Quanti-Blue™ reagent (Invivogen) was added to each well, incubated for 30 min (37° C., 5% CO2) and SEAP levels measured using an Envision plate reader (OD=620 nm).

[2] = test system: interleukin 6 (IL-6); assay: Interleukin 6 induction assay in human whole blood; type: cell-based; settings: 37° C., 20 h, AlphaLISA
Procedure: This example describes a method for assaying interleukin 6 induction by compounds disclosed in this specification.
Compounds diluted in DMSO were transferred to individual wells of a Matrix Technologies clear, V-bottom 384-well plate using ECHO acoustic liquid handling technology (25 nL per well). Human whole-blood samples (25 uL) were added to each well using a CyBio FeliX liquid handling instrument. The plate was shaken on a plate shaker for three min before incu-bating the reaction mixtures at 37° C. for 20 h. Basel RPMI 1640 medium (supplemented with L-glutamine) was then added to each well (25 uL per well) prior to liberating plasma from each sample by centrifugation (450×g, 5 min, ambient temperature). Treated plasma samples (3 uL) were subsequently transferred to individual wells of a white, shallow, 384-well ProxiPlate (Perkin Elmer) using the FeliX liquid handling instrument and their interleukin 6 levels were measured using AlphaLISA technology as described by the manufacturer, PerkinElmer. Data analyses software was used to determine compound EC50 values where the baseline was established using average DMSO values and 100% induction established using reference compound values at the highest concentration tested. EC50's can be determined with software such as Graphpad Prism™.

[3] = test system: IFN-α; settings: fold lower potency vs corresponding purine-8-one compound; cited from earlier work

Chain of human TLR7 (Q9NYK1 27-1049): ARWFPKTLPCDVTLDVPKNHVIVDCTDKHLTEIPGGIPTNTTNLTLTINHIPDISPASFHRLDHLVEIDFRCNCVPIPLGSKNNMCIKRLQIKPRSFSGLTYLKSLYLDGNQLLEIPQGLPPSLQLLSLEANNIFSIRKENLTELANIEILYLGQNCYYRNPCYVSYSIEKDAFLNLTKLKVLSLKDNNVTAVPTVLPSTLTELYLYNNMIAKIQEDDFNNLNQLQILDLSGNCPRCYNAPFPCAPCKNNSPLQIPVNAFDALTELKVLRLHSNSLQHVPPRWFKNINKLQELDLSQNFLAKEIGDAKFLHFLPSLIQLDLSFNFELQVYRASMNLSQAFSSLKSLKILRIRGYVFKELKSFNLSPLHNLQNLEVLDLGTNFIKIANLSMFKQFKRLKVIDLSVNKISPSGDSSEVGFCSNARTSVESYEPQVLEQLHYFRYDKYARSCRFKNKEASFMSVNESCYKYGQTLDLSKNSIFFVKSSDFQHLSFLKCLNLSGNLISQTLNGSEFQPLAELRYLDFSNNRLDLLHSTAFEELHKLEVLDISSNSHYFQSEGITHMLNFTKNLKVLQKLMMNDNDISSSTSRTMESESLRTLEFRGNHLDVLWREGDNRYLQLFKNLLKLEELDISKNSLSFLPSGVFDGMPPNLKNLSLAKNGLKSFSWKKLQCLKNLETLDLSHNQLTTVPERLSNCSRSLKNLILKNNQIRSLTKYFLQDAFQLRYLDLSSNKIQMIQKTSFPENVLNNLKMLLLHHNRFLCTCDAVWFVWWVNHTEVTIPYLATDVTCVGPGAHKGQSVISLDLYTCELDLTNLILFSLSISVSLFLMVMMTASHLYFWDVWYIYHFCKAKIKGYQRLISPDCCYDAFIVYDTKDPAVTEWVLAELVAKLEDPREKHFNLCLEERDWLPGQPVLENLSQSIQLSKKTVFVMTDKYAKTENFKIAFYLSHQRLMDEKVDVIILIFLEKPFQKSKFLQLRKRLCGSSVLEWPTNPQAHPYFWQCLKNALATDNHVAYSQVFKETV

| SMILES | EC50 [1] [nM] | EC50 [2] [nM] | potency less than that of the corresponding purine-8-one compound, as measured by IFN-α induction [3] [×] |
| --- | --- | --- | --- |
| CCCCOc1nc(N)c2nc(O)n(Cc3ccc4c(c3)Sc3cc(CO)ccc3N4C)c2n1 [Ia-01] | 50 | 250 |  |
| CCCCOc1nc(N)c2nc(O)n(Cc3ccc4c(c3)Sc3cc(CNC(C)C)ccc3N4C)c2n1 [Ia-02] | 4.7 | 4.9 |  |
| CCCCOc1nc(N)c2nc(O)n(Cc3ccc4c(c3)Sc3cc(CNC)ccc3N4C)c2n1 [Ia-04] | 39 | 48 |  |
| CCCCOc1nc(N)c2nc(O)n(Cc3ccccc3)c2n1 [Compound B, reference compound] | 474 |  |  |
| CCCCOc1nc(N)c2nc(O)n(Cc3ccc4c(c3)Sc3cc(CNCc5ccccc5)ccc3N4C)c2n1 [Ia-03] | 8.5 | 14.4 |  |

Continued, in another order:

| EC50 [1] [nM] | EC50 [2] [nM] | SMILES | potency less than that of the corresponding purine-8-one compound, as measured by IFN-α induction [3] [×] |
| --- | --- | --- | --- |
| 7.9 |  | CCCCOc1nc(N)c2nc(O)n(Cc3ccc4c(c3)Sc3cc(CNCc5ccncc5)ccc3N4C)c2n1 [Ia-07] |  |
| 580 |  | CCCCOc1nc(N)c2nc(O)n(Cc3ccc4c(c3)Sc3cc(CNC5COC5)ccc3N4C)c2n1 [Ia-05] |  |
| 93 | 750 | CCCCOc1nc(N)c2nc(O)n(Cc3ccc4c(c3)Sc3cc(CNC5CCC5)ccc3N4C)c2n1 [Ia-06] |  |
| 1200 |  | CCCCOc1nc(N)c2c(n1)N(Cc1cccc(CN3CCCC3)c1)CC(=O)N2 [Vesatolimod, vesatolimod, reference compound] | 100 |
